# Legend:
# [1] = system: Chromobacterium violaceum CV026; assay: Violacein inhibition assay (quantitative), tube assay; assay type: cell-based
# Experimental: This assay is based on a similar principle to the one described above, that is the presence of any quorum sensing inhibitor will quantitatively decrease the production of the purple pigment violacein which can then be estimated colorimetrically. This is a tube assay in which 100 μl of overnight culture of CV026 was inoculated in 10 ml LB broth containing the QS signal molecule (namely C6-HSL, C8-HSL or 3-oxo-C6-HSL) at appropriate concentrations. The test compound, Pichia sp. synthesized xylitol in the present invention, was then added at increasing concentrations in a series of test tubes. The violacein produced was extracted from the culture broth by dissolution of the pigment in DMSO and separating it from the cell mass by centrifugation. The amount of xylitol required to inhibit or substantially decrease the purple pigment production could be quantitatively estimated by measuring the optical density at 570 nm. Appropriate positive and negative controls were used. All experiments were done in triplicates for checking reproducibility.
# [2] = system: Chromobacterium violaceum mutant CV026; assay: Violacein inhibition assay (qualitative), agar well; assay type: cell-based; details: QS signal molecule 12.5 μM, 30° C., 24 hours, FIG. 5
# Experimental: This assay has been designed in such a way that a zone inhibition of Violacein synthesis can be seen around the agar well containing the probable QS Inhibitor. Chromobacterium violaceum mutant CV026 is used as the test organism which has the ability to respond to a variety of signal molecules. The QS signal molecule (12.5 μM) is added to 10 ml of Luria bertani soft agar containing 100 μl of overnight culture of CV026. The soft agar is then overlayed onto basal LA plate, and a 4 mm diameter well is dug in the centre of the plate using a sterile cork borer after the overlay is set. To the agar well 75 μl of appropriate concentration of the compound under investigation was added, and the plates were incubated at 30° C. for 24 hours. The diameter of zone of Violacein inhibition was then measured. Pure xylitol from sigma was used for comparative analysis.
# [3] = increasing concentration of xylitol, CV026
structure (smiles),measurement,setting,value
"OC[C@@H](O)[C@H](O)[C@@H](O)CO [Pichia xylitol, xylitol]",antagonism of AHL signal and receptor interaction,"[1]; CV026 based AHL antagonism assay, C6-HSL, C8-HSL and 3-oxo-C6-HSL",able to antagonize not one but three different AHL signal and receptor interaction
same,inhibitory effect on the organism,[1]; [3],not inhibitory to the organism
same,quorum sensing signal reception,[1]; [3],severely impaired quorum sensing signal reception
same,inhibition of Violacein production,"[1]; increasing concentrations of xylitol, optical density at 570 nm, FIG. 6",could quantitatively inhibit Violacein production
same,zone of inhibition of Violacein synthesis,[2],zone of inhibition of Violacein synthesis around the agar well
